| Structure (SMILES) | melting point [°C] |
| --- | --- |
| CN1C(c2ccc3ccccc3c2)CC(=O)CC1c1ccc2ccccc2c1 (configuration not stated) | 209 to 212 |
| N#Cc1nn(-c2c(Cl)cc(C(F)(F)F)cc2Cl)c(N)c1-c1ccoc1C(F)(F)F | 155 to 157 |
| O=C(O)c1ccc(-c2cc(-c3ccc(Cl)cc3)on2)cc1 | > 300 |
| Fc1ccc(-c2cn([C@H]3CN4CCC3CC4)nn2)cn1 | 147 |
| O=C(O)c1ccc2c(c1)S(=O)(=O)c1ccccc1C2=O | 285 to 287 |
| COc1ccc(C2CN(O)C3(c4ccccc4)CCCCC23)cc1OC (configuration not stated) | 166 to 168 |
| CCOC(Cc1ccc(OCCN2CCSc3ccccc32)cc1)C(N)=O (configuration not stated) | 120 to 122 |
| Cc1cc(CCC(=O)c2ccc(-c3ccc(C(F)(F)F)cc3)s2)cc(C)c1OC(C)(C)C(=O)O | 157 to 158 |
| COc1c(Nc2ncc(Cl)c(N[C@H]3[C@@H](C(N)=O)[C@@H]4C=C[C@H]3C4)n2)ccc2c1CC(N1CCOCC1)CCC2 (some centres not stated) | 139 to 148 |
| Nc1ncnc2c1c(I)cn2C1CC(O)C(CO)O1 (configuration not stated) | 194 |
| O=C1CCN(Cc2ccc(C(F)(F)F)cc2C(F)(F)F)CC1C(c1ccc(F)cc1)c1ccc(F)cc1 (configuration not stated) | 104 to 105 |
| CCOC(=O)C(=O)c1csc(NC(=O)Nc2c(C)cccc2C)n1 | 172 to 174 |
| O=C(O)Cc1ccc(OCCNC(=O)C2Cc3ccccc3N2S(=O)(=O)c2ccc(-c3cccc(C(F)(F)F)c3)c(F)c2)cc1 (configuration not stated) | 82 |
| COc1ccc(NC2SC(=O)NC2=O)cc1 (configuration not stated) | 180 to 181 |
| CC1OC(n2cnc3c(N)nc(N)nc32)C(O)C1O (configuration not stated) | 135 to 138 |
| Cc1cccc(NC(=O)c2cc(Cl)cc(C)n2)n1 | 130 |
| O=C(Nc1nc(C(F)(F)F)co1)C1c2ccccc2Oc2c(Cl)cccc21 (racemic) | 212 |
| Oc1c(C(Nc2ccc(Cl)cn2)c2ccccn2)ccc2cccnc12 (configuration not stated) | 160 to 162 |
| O=c1c(-c2ccccc2)cc(Cl)c2n1CCSc1ccsc1-2 | 179 |

| Structure (SMILES) | melting point [°C] |
| --- | --- |
| N#Cc1nn(-c2c(Cl)cc(C(F)(F)F)cc2Cl)c(N)c1-c1onc(Br)c1Br | 279 |
| COc1ccccc1-n1c(-c2cc(-c3ccc(S(C)(=O)=O)cc3)c(N3CCOCC3)s2)nc2ccccc2c1=O | 222 to 223 |
| CCOP(=O)(OCC)N1CC2(C(=O)OC)COc3cc(C(F)(F)F)ccc3C2=N1 (configuration not stated) | 85 to 86 |
| FC(F)Oc1cccc(-c2ccc3nnn(Cc4ccc5ncccc5c4)c3n2)c1 | 122 to 125 |
| Cc1cc(O)nc2[nH]nc(C)c12 | 233 to 235 |
| O=C1NC(=O)C(=Cc2ccc(OC3CCN(C(=O)OCC4c5ccccc5-c5ccccc54)CC3)cc2)S1 | 185 |
| CCOC(=O)C(Cc1ccc2ccc3cccc4ccc1c2c34)(NC(C)=O)C(=O)OCC | 135 to 140 |
| Cc1ccc(S(=O)(=O)Nc2ccc(SC#N)cc2)cc1 | 122 to 124 |
| COC(=O)CCNc1ccccc1CNC(=O)C1Cc2ccccc2N1S(=O)(=O)c1ccc(-c2cccc(C(F)(F)F)c2)cc1 (configuration not stated) | 60 |
| Cc1coc(-c2ccc3c(c2)c2cc(-c4ccc(Cl)cc4Cl)c(=O)n(C)c2n3C)n1 | 258 to 261 |
| Cc1cc(-c2ccc(C(F)(F)F)cc2)cc(-c2ccnc(-c3ccc(S(N)(=O)=O)s3)n2)n1 | > 250 |
| COC(=O)COc1ccc2cc(CNC(=O)c3cc(-c4ccc(Cl)cc4)oc3C)ccc2c1 | 168 to 169 |
| CCOc1c(C)c(N2CCN(c3ccc(C)cc3)CC2)c(C)c2c1OC(C)(C)C2 | 152 to 155 |
| CCOC(=O)Cc1nccc(NC=O)n1 | 80 to 93 |
| Cc1ccc(N)cc1C(=S)OC(C)(C)C | 76 to 78 |
| CC1CC(=O)NN=C1c1ccc2[nH]c(-c3ccncc3)cc2c1 (configuration not stated) | 301 to 303 |
| C=CCc1cc2c(c(CC=C)c1O)CCC(=O)N2CCCN1CCN(c2cccc(Cl)c2)CC1 | 118 |
| COCCc1ccsc1S(N)(=O)=O | 64 to 73 |
| CN1CCN(C(=O)Oc2ccc([N+](=O)[O-])cc2)CC1 | 134 to 135 |

Results, then the compound that gave them:

| melting point [°C] | Structure (SMILES) |
| --- | --- |
| 165 to 170 | Cc1c(C(N)=O)c(C(F)(F)F)nn1-c1c(Cl)cc(C(F)(F)F)cc1Cl |
| 84 to 85 | CC(C)(Cc1cccc(Oc2cccc(CC(C)(C)C(=O)O)c2)c1)C(=O)O |
| 181 to 182 | C#Cc1cnn2c(C3CC3)cc(-c3ccc(Cl)cc3)nc12 |
| 235 to 238 | NC(=O)c1ccc(Cn2ccc(OCc3ccc(F)cc3F)c(Cl)c2=O)cc1 |
| 125 to 127 | CCOC(=O)c1sc(Oc2ccccc2)c2c1CCCC2=O |
| 82 to 82.5 | COC(=O)C1(O)CC(O[Si](C)(C)C(C)(C)C)C(O)C(O[Si](C)(C)C(C)(C)C)C1 (configuration not stated) |
| 148 to 151 | Cc1ccc(C)c2c1CN(NC(=O)OC(C)(C)C)C2 |
| 67 to 72 | CCCCC(=O)OC1(C(=O)CCl)CCC2C3CC(C)C4CC(=O)CCC4(C)C3(F)C(=O)CC21C (configuration not stated) |
| 82 to 83 | CCCCCCCCCCCCCCCCSCC(CNS(=O)(=O)CCCI)NC(=O)OCCCC (configuration not stated) |
| 50 to 52 | COC(=O)c1ccc(Cl)c(N)c1Cl |
| 206 to 207 | O=C(Nc1ccc(-c2ccc3c(NC(=O)c4ccccc4)n[nH]c3c2F)cc1)Nc1cc(C(F)(F)F)ccc1F |
| 167 to 168 | COCCNCCC(=O)Nc1nc(-c2ccccc2)c(-c2ccc(=O)n(C(C)C)n2)s1 |
| 89 to 91 | CC(=O)OCC1OC(n2cc(C3=C(c4cn(C(=O)OC(C)(C)C)c5ccccc45)C(=O)N(C)C3=O)c3cccnc32)C(OC(C)=O)C(OC(C)=O)C1OC(C)=O (configuration not stated) |
| 90 to 93 | Cc1cc(C#C[Si](C)(C)C)ccc1-n1c(C(F)(F)F)nn(C)c1=S |
| 91 to 92 | Cc1ccc(Oc2ccc(-c3cccs3)cc2O)c(O)c1 |
| 69 to 70 | CS(=O)(=O)OCc1cc(-c2ccc3c(c2)CCO3)nn(Cc2ccc(Cl)cc2)c1=O |
| 102 to 106 | O=C(c1ccc(F)c(F)c1)N1CCC[C@H](c2nc(-c3ccncc3)no2)C1 |
| 157 to 158 | CCc1nn(CC(=O)O)c(CC)c1Oc1cc(Cl)cc(Cl)c1 |
| 79 to 80 | CCOC(=O)c1ccc(O)c(F)c1 |
| 85 to 87 | CN(c1ccccc1)c1nc(N(C)c2ccccc2)c2ccsc2n1 |
| 47 | Cc1cc(C)c2c(c1C)OC(C)(C)C2 |
| 142 | C[C@@H](CO)Oc1cc(Oc2ccc(C(=O)N3CCC3)cc2F)cc(C(=O)Nc2ccn(C)n2)c1 |
| 123 to 124 | c1ccc(-c2ccc3oc(COc4ccc(CCCn5ccnc5)cc4)nc3c2)cc1 |
| 150 to 151 | CCOC(=O)COc1ccc2c(C)c(CCN(CC)CC)c(=O)oc2c1Br |
| 122 | NC(=O)c1ccc(F)c2c1CC(NCCCc1c[nH]c3ccc(F)cc13)CO2 (configuration not stated) |
| 73 to 75 | CC1CCN(c2cc(C(C)(C)C)no2)C1=O (configuration not stated) |
| 140 to 143 | CCCCCCCCOc1ccc(C(=O)Oc2ccc3c(c2)C(C)c2cc(O)ccc2-3)cc1 (configuration not stated) |
| 169 to 170 | O=Cc1c2n(c3cc4c(cc13)OCO4)CCC2 |
| 261 to 264 | COc1ccc2c(c1)c1c3c(c(-c4c(Cl)cccc4Cl)cc1n2CCC(N)=O)C(=O)NC3=O |

Reference: a melting point compilation (Tetko et al.; mined from patent text by program, amines drawn as free bases though some values may be those of a salt)
